Like-named read-outs stand apart in the source and are kept apart here.
What was measured:
human recombinant HDAC1 = biological target: T1, human recombinant HDAC1 (Homo sapiens, UniProt Q13547); assay: HDAC1 enzyme activity inhibition (HDAC Fluorimetric Drug Discovery Kit); type: biochemical; settings: read-out: HDAC1
T1 construct: purchased Enzo Life Science, Inc. BML-SE456
Summary of the method: (§1)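 Each isoform is run in the same format: compound dilutions (5-fold steps), 10 μM substrate, […] enzyme, one hour at 30° C, then 30 minutes with developer before fluorescence readout.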

human recombinant HDAC6 = biological target: T2, human recombinant HDAC6 (Homo sapiens, UniProt Q9UBN7); assay: HDAC6 enzyme activity inhibition (HDAC Fluorimetric Drug Discovery Kit); type: biochemical
T2 construct: purchased Calbiochem Inc. 382180
T2 sequence (Q9UBN7 1-1215): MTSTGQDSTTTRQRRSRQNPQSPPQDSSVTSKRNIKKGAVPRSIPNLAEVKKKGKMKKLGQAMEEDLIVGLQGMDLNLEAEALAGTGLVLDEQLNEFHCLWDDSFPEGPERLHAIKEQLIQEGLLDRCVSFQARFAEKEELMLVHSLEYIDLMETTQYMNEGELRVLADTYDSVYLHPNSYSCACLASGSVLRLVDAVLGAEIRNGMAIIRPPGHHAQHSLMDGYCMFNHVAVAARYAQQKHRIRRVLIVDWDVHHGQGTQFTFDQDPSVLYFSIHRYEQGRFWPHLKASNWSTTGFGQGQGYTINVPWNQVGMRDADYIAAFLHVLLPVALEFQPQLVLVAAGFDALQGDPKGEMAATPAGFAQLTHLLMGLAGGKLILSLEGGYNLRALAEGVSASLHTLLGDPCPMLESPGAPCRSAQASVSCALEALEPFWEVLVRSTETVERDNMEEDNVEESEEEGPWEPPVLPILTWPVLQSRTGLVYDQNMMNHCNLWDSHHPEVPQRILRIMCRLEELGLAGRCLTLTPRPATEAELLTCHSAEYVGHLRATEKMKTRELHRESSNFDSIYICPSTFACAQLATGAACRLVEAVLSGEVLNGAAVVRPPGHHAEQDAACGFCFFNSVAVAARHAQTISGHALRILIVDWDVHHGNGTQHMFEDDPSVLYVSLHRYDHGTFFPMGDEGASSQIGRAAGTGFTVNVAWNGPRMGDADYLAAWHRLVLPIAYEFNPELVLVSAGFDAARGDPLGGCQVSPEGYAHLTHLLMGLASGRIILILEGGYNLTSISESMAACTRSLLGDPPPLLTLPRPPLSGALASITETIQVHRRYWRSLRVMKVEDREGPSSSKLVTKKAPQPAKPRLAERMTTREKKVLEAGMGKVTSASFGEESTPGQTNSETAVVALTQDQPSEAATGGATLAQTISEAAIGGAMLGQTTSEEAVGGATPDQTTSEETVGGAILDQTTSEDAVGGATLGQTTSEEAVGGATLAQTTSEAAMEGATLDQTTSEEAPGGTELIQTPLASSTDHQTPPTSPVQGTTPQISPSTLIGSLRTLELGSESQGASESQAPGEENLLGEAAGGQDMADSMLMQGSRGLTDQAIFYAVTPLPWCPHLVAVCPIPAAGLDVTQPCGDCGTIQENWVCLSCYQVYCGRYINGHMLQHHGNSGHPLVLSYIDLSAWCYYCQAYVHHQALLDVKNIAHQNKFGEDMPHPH
Summary of the method: as §1

[1] = human recombinant HDAC1, Fluor de Lys substrate, 30° C. 60 minutes
[2] = human recombinant HDAC6, same protocol as HDAC1
[3] = human recombinant HDAC1, IC50 calculated with GraphPad Prism
[4] = human recombinant HDAC6, IC50 calculated with GraphPad Prism

T1 sequence (Q13547 whole entry): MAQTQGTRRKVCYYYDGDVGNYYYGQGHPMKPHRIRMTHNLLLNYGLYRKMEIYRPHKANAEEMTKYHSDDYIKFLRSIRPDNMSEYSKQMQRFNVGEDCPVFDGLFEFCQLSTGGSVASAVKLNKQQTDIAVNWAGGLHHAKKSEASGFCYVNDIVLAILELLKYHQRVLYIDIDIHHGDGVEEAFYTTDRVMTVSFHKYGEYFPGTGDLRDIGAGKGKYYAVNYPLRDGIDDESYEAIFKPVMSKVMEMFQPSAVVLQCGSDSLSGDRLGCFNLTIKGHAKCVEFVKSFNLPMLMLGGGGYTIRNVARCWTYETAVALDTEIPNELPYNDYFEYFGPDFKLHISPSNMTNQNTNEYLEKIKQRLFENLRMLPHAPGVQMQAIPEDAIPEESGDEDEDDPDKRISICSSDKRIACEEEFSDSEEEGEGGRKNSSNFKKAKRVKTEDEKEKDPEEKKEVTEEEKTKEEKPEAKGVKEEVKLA

Row | SMILES | IC50 (human recombinant HDAC1; [1]) | HDAC6 selectivity (fold) (human recombinant HDAC6; HDAC6 over HDAC1) | IC50 (human recombinant HDAC6; [2]) | IC50 (human recombinant HDAC1; [3]) | HDAC6 selectivity (fold) (human recombinant HDAC6; HDAC1 IC50 / HDAC6 IC50) | IC50 (human recombinant HDAC6; [4])
1 | CC(C)(C)OC(=O)N1CCC(c2cccc(-c3cn(Cc4ccc(-c5nnc(C(F)F)o5)cn4)nn3)c2)CC1 [Compound 4001, tert-butyl 4-(3-(1-((5-(5-(difluoromethyl)-1,3,4-oxadiazol-2-yl)pyridin-2-yl)methyl)-1H-1,2,3-triazol-4-yl)phenyl)piperidin-1-carboxylate] | – | – | – | > 50000 nM | 296 fold | 169 nM
2 | CC(C)(C)OC(=O)Nc1cccc(-c2cn(Cc3ccc(-c4nnc(C(F)F)o4)cc3F)nn2)c1 [Compound 3697, Tert-butyl (3-(1-(4-(5-(difluoromethyl)-1,3,4-oxadiazol-2-yl)-2-fluorobenzyl)-1H-1,2,3-triazol-4-yl)phenyl)carbamate] | – | – | – | > 50000 nM | 1101 fold | 45.4 nM
3 | CN1CCN(Cc2ccc(-c3cn(Cc4ccc(-c5nnc(C(F)F)o5)cc4)nn3)cc2)CC1 [Compound 4552, 2-(difluoromethyl)-5-(4-((4-(4-((4-methylpiperazin-1-yl)methyl)phenyl)-1H-1,2,3-triazol-1-yl)methyl)phenyl)-1,3,4-oxadiazole] | > 50000 nM | 1184 fold | 42.2 nM | – | – | –
4 | CC1CCN(Cc2cc(Cl)cc(-c3cn(Cc4ncc(-c5nnc(C(F)F)o5)cc4F)nn3)c2)CC1 [Compound 19093, 2-(6-((4-(3-chloro-5-((4-methylpiperidin-1-yl)methyl)phenyl)-1H-1,2,3-triazol-1-yl)methyl)-5-fluoropyridin-3-yl)-5-(difluoromethyl)-1,3,4-oxadiazole] | > 50000 nM | 211 fold | 236 nM | – | – | –
5 | OC1(c2cn(Cc3ccc(-c4nnc(C(F)F)o4)cc3F)nn2)CCOC1 (stereo not drawn) [Compound 4279, 3-(1-(4-(5-(difluoromethyl)-1,3,4-oxadiazol-2-yl)-2-fluorobenzyl)-1H-1,2,3-triazol-4-yl)tetrahydrofuran-3-ol] | – | – | – | > 50000 nM | 182 fold | 274 nM
6 | Fc1ccc(-c2cn(Cc3ccc(-c4nnc(C(F)F)o4)cc3)nn2)cc1N1CCNCC1 [Compound 4396, 2-(difluoromethyl)-5-(4-((4-(4-fluoro-3-(piperazin-1-yl)phenyl)-1H-1,2,3-triazol-1-yl)methyl)phenyl)-1,3,4-oxadiazole] | – | – | – | > 50000 nM | 619 fold | 80.7 nM
7 | CN(C)Cc1cc(Cl)cc(-c2cn(Cc3ccc(-c4nnc(C(F)F)o4)cc3F)nn2)c1 [Compound 18483, 1-(3-chloro-5-(1-(4-(5-(difluoromethyl)-1,3,4-oxadiazol-2-yl)-2-fluorobenzyl)-1H-1,2,3-triazol-4-yl)phenyl)-N,N-dimethylmethanamine] | > 50000 nM | 970 fold | 51.5 nM | – | – | –
8 | CCOC(=O)N(C)c1cccc(-c2cn(Cc3ccc(-c4nnc(C(F)F)o4)cn3)nn2)c1 [Compound 3890] | – | – | – | > 50000 nM | 1319 fold | 37.9 nM
9 | Fc1cc(-c2cn(Cc3ncc(-c4nnc(C(F)F)o4)cc3F)nn2)ccc1CN1CCCCC1 [Compound 18950, 2-(difluoromethyl)-5-(5-fluoro-6-((4-(3-fluoro-4-(piperidin-1-ylmethyl)phenyl)-1H-1,2,3-triazol-1-yl)methyl)pyridin-3-yl)-1,3,4-oxadiazole] | > 50000 nM | 570 fold | 87.6 nM | – | – | –

Results, then the compound that gave them:

Row | IC50 (human recombinant HDAC1; [1]) | HDAC6 selectivity (fold) (human recombinant HDAC6; HDAC6 over HDAC1) | IC50 (human recombinant HDAC6; [2]) | IC50 (human recombinant HDAC1; [3]) | HDAC6 selectivity (fold) (human recombinant HDAC6; HDAC1 IC50 / HDAC6 IC50) | IC50 (human recombinant HDAC6; [4]) | SMILES
10 | > 50000 nM | 531 fold | 94.1 nM | – | – | – | Fc1cc(-c2nnc(C(F)F)o2)ccc1Cn1cc(-c2ccc(CN3CCC(F)(F)C3)nc2)nn1 [Compound 17775, 2-(difluoromethyl)-5-(4-((4-(6-((3,3-difluoropyrrolidin-1-yl)methyl)pyridin-3-yl)-1H-1,2,3-triazol-1-yl)methyl)-3-fluorophenyl)-1,3,4-oxadiazole]
11 | > 50000 nM | 650 fold | 76.9 nM | – | – | – | CN1CCC(c2ccc(-c3cn(Cc4ncc(-c5nnc(C(F)F)o5)cc4F)nn3)cc2)CC1 [Compound 19087, 2-(difluoromethyl)-5-(5-fluoro-6-((4-(4-(1-methylpiperidin-4-yl)phenyl)-1H-1,2,3-triazol-1-yl)methyl)pyridin-3-yl)-1,3,4-oxadiazole]
12 | – | – | – | > 50000 nM | 970 fold | 51.5 nM | CC(C)N1CCN(Cc2cccc(-c3cn(Cc4ccc(-c5nnc(C(F)F)o5)cc4F)nn3)c2)CC1 [Compound 4408]
13 | > 50000 nM | 2857 fold | 17.5 nM | – | – | – | CN1CCN(c2cccc(-c3cn(Cc4ccc(-c5nnc(C(F)F)o5)cc4F)nn3)c2F)CC1 [Compound 4576, 2-(difluoromethyl)-5-(3-fluoro-4-((4-(2-fluoro-3-(4-methylpiperazin-1-yl)phenyl)-1H-1,2,3-triazol-1-yl)methyl)phenyl)-1,3,4-oxadiazol]
14 | > 50000 nM | 809 fold | 61.8 nM | – | – | – | Cc1cnc(-c2cn(Cc3ccc(-c4nnc(C(F)F)o4)cc3F)nn2)s1 [Compound 17857, 2-(difluoromethyl)-5-(3-fluoro-4-((4-(5-methylthiazol-2-yl)-1H-1,2,3-triazol-1-yl)methyl)phenyl)-1,3,4-oxadiazole]
15 | – | – | – | > 50000 nM | 540 fold | 92.5 nM | Fc1cc(-c2nnc(C(F)F)o2)ccc1Cn1cc(-c2cccc(C3CN(C4COC4)C3)c2)nn1 [Compound 4462, 2-(difluoromethyl)-5-(3-fluoro-4-((4-(3-(1-(oxetan-3-yl)azetidin-3-yl)phenyl)-1H-1,2,3-triazol-1-yl)methyl)phenyl)-1,3,4-oxadiazole]
16 | > 50000 nM | 680 fold | 73.5 nM | – | – | – | CCN1Cc2ccc(-c3cn(Cc4ccc(-c5nnc(C(F)F)o5)cc4F)nn3)cc2C1 [Compound 4516, 2-(difluoromethyl)-5-(4-((4-(2-ethylisoindolin-5-yl)-1H-1,2,3-triazol-1-yl)methyl)-3-fluorophenyl)-1,3,4-oxadiazole]
17 | > 50000 nM | 2283 fold | 21.9 nM | – | – | – | CN1CCN(c2cc(-c3cn(Cc4ccc(-c5nnc(C(F)F)o5)cn4)nn3)ccn2)CC1 [Compound 4582, 2-(difluoromethyl)-5-(6-((4-(2-(4-methylpiperazin-1-yl)pyridin-4-yl)-1H-1,2,3-triazol-1-yl)methyl)pyridin-3-yl)-1,3,4-oxadiazole]
18 | – | – | – | > 50000 nM | 591 fold | 84.5 nM | Fc1cc(-c2nnc(C(F)F)o2)ccc1Cn1cc(-c2ccc3cc[nH]c3c2)nn1 [Compound 4077, 2-(4-((4-(1H-indol-6-yl)-1H-1,2,3-triazol-1-yl)methyl)-3-fluorophenyl)-5-(difluoromethyl)-1,3,4-oxadiazole]
19 | > 50000 nM | 2732 fold | 18.3 nM | – | – | – | CC(C)N1CCN(c2cccc(-c3cn(Cc4ccc(-c5nnc(C(F)F)o5)cn4)nn3)c2F)CC1 [Compound 4571, 2-(difluoromethyl)-5-(6-((4-(2-fluoro-3-(4-isopropylpiperazin-1-yl)phenyl)-1H-1,2,3-triazol-1-yl)methyl)pyridin-3-yl)-1,3,4-oxadiazole]
20 | – | – | – | > 50000 nM | 228 fold | 21.9 nM | CCCN1CCN(c2cccc(-c3cn(Cc4ccc(-c5nnc(C(F)F)o5)cc4F)nn3)c2)CC1 [Compound 4374, 2-(difluoromethyl)-5-(3-fluoro-4-((4-(3-(4-propylpiperazin-1-yl)phenyl)-1H-1,2,3-triazol-1-yl)methyl)phenyl)-1,3,4-oxadiazole]
21 | > 50000 nM | 1237 fold | 40.4 nM | – | – | – | Fc1cc(-c2nnc(C(F)F)o2)ccc1Cn1cc(-c2ccc(CN3CCC3)s2)nn1 [Compound 17912, 2-(4-((4-(5-(azetidin-1-ylmethyl)thiophen-2-yl)-1H-1,2,3-triazol-1-yl)methyl)-3-fluorophenyl)-5-(difluoromethyl)-1,3,4-oxadiazole]
